The subject of one data set is sodium channel. In words: Guanidine influx assay (14C-guanidine radiotracer flux, in vitro). It counts as cell-based, human or rat. As to conditions: guanidine influx assay using a known cell line that expresses a sodium channel; activity level class. In short, it runs like this:
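IC50 derives from a four-parameter logistic fit of 14C-guanidine uptake, test agent serially half-diluted around a 1 μM midpoint. Flux was driven by aconitine in low-sodium HEPES/choline saline at ambient temperature, using endogenous or recombinant human or rat sodium-channel cell lines plated ~100,000/well for 20–24 h.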

Another data set deals with CYP3A4 (Homo sapiens, UniProt P08684). As to the kind of experiment: Cytochrome P450 (CYP450) Inhibition Assay, CYP3A4 (Vivid fluorescence, BOMCC substrate). Particulars: human, P450 Baculosomes (recombinant CYP3A4), probe BOMCC (Vivid substrate).

Each structure is given as a SMILES string.

CYP3A4, sequence (P08684 whole entry): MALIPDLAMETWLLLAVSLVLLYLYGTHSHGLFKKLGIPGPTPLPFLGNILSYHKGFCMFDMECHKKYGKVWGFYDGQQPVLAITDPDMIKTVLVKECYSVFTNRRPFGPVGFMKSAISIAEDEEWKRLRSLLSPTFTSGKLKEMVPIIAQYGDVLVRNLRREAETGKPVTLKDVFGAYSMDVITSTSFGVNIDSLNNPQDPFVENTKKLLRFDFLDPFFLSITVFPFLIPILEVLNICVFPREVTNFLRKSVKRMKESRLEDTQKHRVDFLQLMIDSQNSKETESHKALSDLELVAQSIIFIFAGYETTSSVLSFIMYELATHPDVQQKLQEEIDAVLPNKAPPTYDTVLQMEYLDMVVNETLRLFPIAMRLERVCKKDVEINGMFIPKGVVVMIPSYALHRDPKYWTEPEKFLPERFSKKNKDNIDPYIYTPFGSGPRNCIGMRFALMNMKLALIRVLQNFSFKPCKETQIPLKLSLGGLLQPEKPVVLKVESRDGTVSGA

As usually defined, the IC50 is the concentration at which inhibition is half-maximal. For orientation: melting point means the temperature of the solid-liquid transition. The term inhibition denotes the change of the read-out against control, counted positive when it falls. Consider `O=C1N(C[C@H]2CCCO2)c2ccccc2C12COc1cc3c(cc12)OCCCO3` (stereo partly drawn) [Example 8.11, 1′-[(2R)-tetrahydrofuran-2-ylmethyl]-3,4-dihydro-2H-spiro[furo[2,3-h][1,5]benzodioxepine-9,3′-indol]-2′(1′H)-one], for which the melting point lay in the range of 134 to 138 °C. In the data set on sodium channel, the IC50 was in the range of 1000 to 10000 nM. The inhibition at 10 µM at CYP3A4 was less than 50%.

For the compound `Cn1c(=O)oc2cc3c(cc21)OCC31C(=O)N(C[C@H]2CCCO2)c2ccccc21` (stereo partly drawn) [Example 8.14, 3-methyl-1′-(((R)-tetrahydrofuran-2-yl)methyl)-2H-spiro[benzofuro[6,5-d]oxazole-7,3′-indoline]-2,2′(3H,6H)-dione], the melting point fell in the range of 186 to 187 °C. The IC50 in the data set with sodium channel lay in the range of 1000 to 10000 nM. Besides, on CYP3A4, the inhibition at 10 µM is less than 50%.

Compound `O=C1N(Cc2ccccn2)c2c(F)cccc2C12COc1cc3c(cc12)OCCO3` (stereo not drawn) [Example 8.15, 7′-fluoro-1′-(pyridin-2-ylmethyl)-3,7-dihydro-2H-spiro[benzofuro[5,6-b][1,4]dioxine-8,3′-indolin]-2′-one] displayed a melting point of 205 to 207 °C. Besides, in the data set with sodium channel, the IC50 was 1 to 100 nM. For the same compound, the inhibition at 10 µM at CYP3A4 was less than 50%.

`O=C1N(Cc2ncccc2C(F)(F)F)c2c(F)cccc2C12COc1cc3c(cc12)OCCO3` (stereo not drawn) [Example 8.16, 7′-fluoro-1-((3-(trifluoromethyl)pyridin-2-yl)methyl)-3,7-dihydro-2H-spiro[benzofuro[5,6-b][1,4]dioxine-8,3′-indolin]-2′-one] showed a melting point of 241 to 243 °C. Besides, in the data set with sodium channel, the IC50 was in the range of 1 to 100 nM. Moreover, the inhibition at 10 µM at CYP3A4 was less than 50%.

Compound `O=C1N(Cc2ccccc2C(F)F)c2ccccc2C12COc1cc3c(cc12)OCCO3` (stereo not drawn) [Example 8.17] came in with a melting point of 191 to 193 °C. The concentration for half-maximal inhibition (IC50) in the data set on sodium channel was 1 to 100 nM. Further, the inhibition at 10 µM at CYP3A4 is less than 50%.

`O=C1N(Cc2cncc(F)c2)c2ccccc2[C@]12COc1cc3c(cc12)OCCO3` [Example 8.19, (8S)-1′-[(5-fluoropyridin-3-yl)methyl]-2,3-dihydrospiro[furo[2,3-g][1,4]benzodioxine-8,3′-indol]-2′(1′H)-one] came in with a melting point of 197 to 200 °C. In addition, the IC50 in the data set on sodium channel lay within 1 to 100 nM. Moreover, at CYP3A4, the inhibition at 10 µM is less than 50%.

Consider `COCCOCCN1C(=O)C2(COc3cc4c(cc32)CCO4)c2ccccc21` (stereo not drawn) [Example 9.1, 1′-[2-(2-methoxyethoxy)ethyl]-5,6-dihydrospiro[benzo[1,2-b:5,4-b′]difuran-3,3′-indol]-2′(1′H)-one], for which the melting point lay in the range of 105 to 107 °C. For the same compound, in the data set with sodium channel, the IC50 was 100 to 1000 nM. Moreover, on CYP3A4, the inhibition at 10 µM is greater than 50%.

Regarding `O=C1CC[C@@H](CN2C(=O)C3(COc4cc5c(cc43)CCO5)c3ccccc32)N1` (stereo partly drawn) [Example 9.2, 1′-{[(2S)-5-oxopyrrolidin-2-yl]methyl}-5,6-dihydrospiro[benzo[1,2-b:5,4-b′]difuran-3,3′-indol]-2′(1′H)-one], the melting point fell in the range of 133 to 136 °C. For the same compound, the IC50 in the data set with sodium channel was in the range of 1000 to 10000 nM. Further, on CYP3A4, the inhibition at 10 µM is less than 50%.

Compound `O=C1OCCN1CCN1C(=O)C2(COc3cc4c(cc32)CCO4)c2ccccc21` (stereo not drawn) [Example 9.3, 1′-[2-(2-oxo-1,3-oxazolidin-3-yl)ethyl]-5,6-dihydrospiro[benzo[1,2-b:5,4-b′]difuran-3,3′-indol]-2′(1′H)-one] registered a melting point of 185 to 186 °C. In addition, the IC50 with sodium channel is 1000 to 10000 nM. For the same compound, the inhibition at 10 µM at CYP3A4 is greater than 50%.

`O=C1N(Cc2ccc(-c3ccccn3)cc2)c2ccccc2C12COc1cc3c(cc12)CCO3` (stereo not drawn) [Example 9.4, 1-(4-pyridin-2-ylbenzyl)-5,6-dihydrospiro[benzo[1,2-b:5,4-b′]difuran-3,3′-indol]-2′(1′H)-one] showed a melting point of 217 to 219 °C. In addition, the IC50 with sodium channel was in the range of 100 to 1000 nM. Also, on CYP3A4, the inhibition at 10 µM was less than 50%.

`O=C1N(Cc2ncccn2)c2ccccc2C12COc1cc3c(cc12)CCO3` (stereo not drawn) [Example 9.5, 1′-(pyrimidin-2-ylmethyl)-5,6-dihydrospiro[benzo[1,2-b:5,4-b′]difuran-3,3′-indol]-2′(1′H)-one] had a melting point of 203 to 205 °C. Also, the IC50 in the data set with sodium channel lay in the range of 1 to 100 nM. Also, the inhibition at 10 µM on CYP3A4 is less than 50%.

On to `O=C1N(Cc2cnccn2)c2ccccc2C12COc1cc3c(cc12)CCO3` (stereo not drawn) [Example 9.7, 1′-(pyrazin-2-ylmethyl)-5,6-dihydrospiro[benzo[1,2-b:5,4-b′]difuran-3,3′-indol]-2′(1′H)-one], for which the melting point was in the range of 143 to 144 °C. Besides, the IC50 in the data set with sodium channel lay in the range of 1 to 100 nM. Also, the inhibition at 10 µM at CYP3A4 was less than 50%.

The compound `O=C1N(Cc2cc3cccc(F)c3o2)c2ccccc2C12COc1cc3c(cc12)CCO3` (stereo not drawn) [Example 9.8, 1′-[(7-fluoro-1-benzofuran-2-yl)methyl]-5,6-dihydrospiro[benzo[1,2-b:5,4-b′]difuran-3,3′-indol]-2′(1′H)-one] returned a melting point of 192 to 193 °C. In the data set with sodium channel, the IC50 was 1 to 100 nM. For the same compound, the inhibition at 10 µM on CYP3A4 was greater than 50%.

In turn, `O=C1N(Cc2cccnn2)c2ccccc2C12COc1cc3c(cc12)CCO3` (stereo not drawn) [Example 9.9, 1′-(pyridazin-3-ylmethyl)-5,6-dihydrospiro[benzo[1,2-b:5,4-b′]difuran-3,3′-indol]-2′(1′H)-one] registered a melting point of 81 to 82 °C. Also, the IC50 with sodium channel is 100 to 1000 nM. Moreover, the inhibition at 10 µM on CYP3A4 is less than 50%.

Regarding `O=C1NCC(CN2C(=O)C3(COc4cc5c(cc43)CCO5)c3ccccc32)O1` (stereo not drawn) [Example 9.10, 1′-[(2-oxo-1,3-oxazolidin-5-yl)methyl]-5,6-dihydrospiro[benzo[1,2-b:5,4-b′]difuran-3,3′-indol]-2′(1′H)-one], the melting point fell in the range of 197 to 198 °C. Also, the IC50 in the data set on sodium channel was 1000 to 10000 nM. Further, the inhibition at 10 µM on CYP3A4 was less than 50%.

The compound `O=C1N(Cc2cccc(OCc3ccccc3)c2)c2ccccc2C12COc1cc3c(cc12)CCO3` (stereo not drawn) [Example 9.11, 1′-[3-(benzyloxy)benzyl]-5,6-dihydrospiro[benzo[1,2-b:5,4-b′]difuran-3,3′-indol]-2′(1′H)-one] yielded a melting point of 66 to 68 °C. In addition, the IC50 in the data set on sodium channel lay within 100 to 1000 nM. Further, the inhibition at 10 µM at CYP3A4 was less than 50%.

`Cn1c(CN2C(=O)C3(COc4cc5c(cc43)CCO5)c3ccccc32)nc2ccccc21` (stereo not drawn) [Example 9.12, 1′-[(1-methyl-1H-benzimidazol-2-yl)methyl]-5,6-dihydrospiro[benzo[1,2-b:5,4-b′]difuran-3,3′-indol]-2′(1′H)-one] registered a melting point of 244 to 246 °C. For the same compound, the IC50 in the data set on sodium channel is 100 to 1000 nM. Further, the inhibition at 10 µM at CYP3A4 is greater than 50%.

Turning to `O=C1N(Cn2nc3ccccc3n2)c2ccccc2C12COc1cc3c(cc12)CCO3` (stereo not drawn) [Example 9.13, 1′-(2H-benzotriazol-2-ylmethyl)-5,6-dihydrospiro[benzo[1,2-b:5,4-b′]difuran-3,3′-indol]-2′(1′H)-one], the melting point was in the range of 102 to 105 °C. For the same compound, the IC50 in the data set on sodium channel lay within 1 to 100 nM. Besides, the inhibition at 10 µM on CYP3A4 was greater than 50%.

In the case of `COC(=O)c1cccc(CN2C(=O)C3(COc4cc5c(cc43)CCO5)c3ccccc32)c1` (stereo not drawn) [Example 9.15, methyl 3-[(2′-oxo-5,6-dihydrospiro[benzo[1,2-b:5,4-b′]difuran-3,3′-indol]-1′(2′H)-yl)methyl]benzoate], the melting point was 97 to 98 °C. In addition, in the data set with sodium channel, the IC50 was 1 to 100 nM. For the same compound, on CYP3A4, the inhibition at 10 µM is greater than 50%.

As to `COC(=O)c1ccc(CN2C(=O)C3(COc4cc5c(cc43)CCO5)c3ccccc32)cc1` (stereo not drawn) [Example 9.16, methyl 4-[(2′-oxo-5,6-dihydrospiro[benzo[1,2-b:5,4-b′]difuran-3,3′-indol]-1′(2′H)-yl)methyl]benzoate], the melting point was 136 to 140 °C. The IC50 in the data set on sodium channel was 1 to 100 nM. For the same compound, the inhibition at 10 µM at CYP3A4 was less than 50%.

`O=C1N(CCCOCc2ccccc2)c2ccccc2C12COc1cc3c(cc12)CCO3` (stereo not drawn) [Example 9.17, 1′-[3-(benzyloxy)propyl]-5,6-dihydrospiro[benzo[1,2-b:5,4-b′]difuran-3,3′-indol]-2′(1′H)-one] returned a melting point of 112 to 113 °C. Moreover, the IC50 in the data set with sodium channel is 100 to 1000 nM. Further, the inhibition at 10 µM at CYP3A4 is greater than 50%.

With `O=C1N(C[C@H]2CCCO2)c2ccc(F)cc2C12COc1cc3c(cc12)CCO3` (stereo partly drawn) [Example 9.18, 5′-fluoro-1′-[(2R)-tetrahydrofuran-2-ylmethyl]-5,6-dihydrospiro[benzo[1,2-b:5,4-b′]difuran-3,3′-indol]-2′(1′H)-one], the melting point was 167 to 169 °C. Also, in the data set on sodium channel, the IC50 lay within 100 to 1000 nM. Besides, the inhibition at 10 µM on CYP3A4 is greater than 50%.

For `O=C1N(C[C@H]2CCCO2)c2cc(F)ccc2C12COc1cc3c(cc12)CCO3` (stereo partly drawn) [Example 9.19, 6′-fluoro-1′-[(2R)-tetrahydrofuran-2-ylmethyl]-5,6-dihydrospiro[benzo[1,2-b:5,4-b′]difuran-3,3′-indol]-2′(1′H)-one], the melting point lay in the range of 137 to 139 °C. The IC50 in the data set with sodium channel was 100 to 1000 nM. In addition, at CYP3A4, the inhibition at 10 µM is less than 50%.

`Cc1nc2cc3c(cc2s1)C1(CO3)C(=O)N(Cc2ccccn2)c2ccccc21` (stereo not drawn) [Example 9.21, 2-methyl-1′-(pyridin-2-ylmethyl)spiro[furo[2,3-f][1,3]benzothiazole-7,3′-indol]-2′(1′H)-one]: the melting point lay within 249 to 250 °C. The IC50 in the data set on sodium channel lay within 1000 to 10000 nM. Also, on CYP3A4, the inhibition at 10 µM was less than 50%.

In turn, `Cc1nc2cc3c(cc2s1)C1(CO3)C(=O)N(Cc2ncc(Cl)n2C)c2ccccc21` (stereo not drawn) [Example 9.22, 1′-[(5-chloro-1-methyl-1H-imidazol-2-yl)methyl]-2-methylspiro[furo[2,3-f][1,3]benzothiazole-7,3′-indol]-2′(1′H)-one] showed a melting point of 177 to 178 °C. Also, in the data set with sodium channel, the IC50 is 1000 to 10000 nM. Also, at CYP3A4, the inhibition at 10 µM was greater than 50%.

The values are drawn from patent publication US8263606B2 (Xenon Pharmaceuticals Inc., priority 2008, dated 2012).
